Literature values in patent US20060239954A1, “Antimicrobial spray for use on pets” (priority 2005, published 2006).

Columns and labels:
Conditions in all cases: 0.1% aqueous solution
Staphylococcus aureus = system: Staphylococcus aureus
Escherichia coli = system: Escherichia coli
Pseudomonas aeruginosa = system: Pseudomonas aeruginosa

N=C(NCCCCCCNC(=N)NC(=N)Nc1ccc(Cl)cc1)NC(=N)Nc1ccc(Cl)cc1.O=C(O)[C@H](O)[C@@H](O)[C@H](O)[C@H](O)CO.O=C(O)[C@H](O)[C@@H](O)[C@H](O)[C@H](O)CO [Chlorhexidine gluconate, chlorhexidine gluconate]
bactericidal: bactericidal against Staphylococcus aureus (Staphylococcus aureus) | bactericidal against Escherichia coli (Escherichia coli) | bactericidal against Pseudomonas aeruginosa (Pseudomonas aeruginosa)
